Key:
[1] = Inhibition of pig heart MDH by Michaelis constant analysis; set-up: species or system Sus scrofa
[2] = Inhibition of yeast ADH by Michaelis constant analysis; set-up: species or system Saccharomyces cerevisiae
[3] = Inhibition of pig heart LDH by Michaelis constant analysis; set-up: species or system Sus scrofa
Gallus gallus = species: Gallus gallus; experiment: Inhibition of chicken liver NAD kinase assessed as residual activity relative to control
[4] = Inhibition of Thermoanaerobacter brockii ADH by Michaelis constant analysis
[5] = Inhibition of Leuconostoc mesenteroides D-LDH by Michaelis constant analysis

Ki [1] | Ki [2] | Ki [3] | Activity (Gallus gallus) | Ki [4] | Ki [5] | Structure (SMILES)
1.8 mM | 3.6 mM | 2.7 mM | 64% | 7.2 mM | 20 mM | NC(=O)c1csc([C@@H]2O[C@H](COC(=O)CCC(=O)OC[C@H]3O[C@@H](n4cnc5c(N)ncnc54)[C@H](O)[C@@H]3O)[C@@H](O)[C@H]2O)n1
0.7 mM | 0.62 mM | 0.8 mM | 81% | 0.71 mM | 10 mM | NC(=O)c1csc([C@@H]2O[C@H](COC(=O)[C@@H]3CCCC[C@H]3C(=O)OC[C@H]3O[C@@H](n4cnc5c(N)ncnc54)[C@H](O)[C@@H]3O)[C@@H](O)[C@H]2O)n1
3.3 mM | 2.6 mM | 3.9 mM | 60% | 7.1 mM | 24 mM | NC(=O)c1csc([C@@H]2O[C@H](COC(=O)[C@H]3CCCC[C@@H]3C(=O)OC[C@H]3O[C@@H](n4cnc5c(N)ncnc54)[C@H](O)[C@@H]3O)[C@@H](O)[C@H]2O)n1
